Experimental findings from ChEMBL document CHEMBL5257016, “Rho Kinase (ROCK) Inhibitors and Their Therapeutic Potential” (J Med Chem, 2016) are described below.

Molecules are shown by their SMILES. A value given as a limit tells only on which side of the number the result lay.

The target of data set [1] is T1, Rho-associated protein kinase 1 (Homo sapiens, UniProt Q13464). The experiment in a line: Inhibition of GST-tagged ROCK1 (1 to 535 residues) (unknown origin) using S6-peptide as substrate preincubated for 15 mins followed by 33P-ATP addition and measured after 120 mins by scintillation counter analysis.
Data set [2] has as its target T2, Rho-associated protein kinase 2 (Homo sapiens, UniProt O75116). The experiment in a line: Inhibition of GST-tagged ROCK2 (5 to 554 residues) (unknown origin) using S6-peptide as substrate preincubated for 15 mins followed by 33P-ATP addition and measured after 120 mins by scintillation counter analysis.
The target of data set [3] is T2, Rho-associated protein kinase 2. The experiment in a line: Inhibition of ROCK2 (unknown origin) using STK2 as substrate incubated for 4 hrs by HTRF assay. (TR-FRET usually uses a lanthanide donor and a delayed reading to cut background.)
Data set [4] has as its target cAMP-dependent protein kinase (PKA) (Homo sapiens, UniProt P22694+P17612+P22612). The experiment in a line: Inhibition of PKA (unknown origin). It is filed as protein assay.
The target of data set [5] is T2, Rho-associated protein kinase 2. The experiment in a line: Inhibition of human recombinant ROCK2 using 5FAM-AKRRRLSSLRA-COOH as substrate preincubated for 10 mins followed by substrate addition in presence of ATP and measured after 45 mins by TR-FRET assay.
Data set [6] shares this target. The experiment in a line: Inhibition of ROCK2 (unknown origin).
Data set [7] concerns the target T1, Rho-associated protein kinase 1. The experiment in a line: Inhibition of human recombinant ROCK1 using S6-peptide as substrate as substrate preincubated for 10 mins followed by 33P-labeled ATP addition and measured after 20 mins by Micro-Beta counter analysis.
The nature of data set [8]: Induction of neurogenesis in human Embryonic stem cells assessed as cell proliferation incubated for 4 days by CellTiterGlo luminescence assay. The note with it: 96 h. Type of data set: functional, cell-based.
Data set [9] addresses T1, Rho-associated protein kinase 1. The experiment in a line: Inhibition of ROCK1 (unknown origin).
The target of data set [10] is Nicotinamide phosphoribosyltransferase (Homo sapiens, UniProt P43490). The experiment in a line: Inhibition of recombinant human C-terminally-His tagged NAMPT incubated for 2 to 3 hrs by TR-FRET assay.
Data set [11] deals with T2, Rho-associated protein kinase 2. The experiment in a line: Inhibition of ROCK2 (unknown origin) using 33P-ATP as substrate and measured after 120 mins by radiometric analysis.
In data set [12] the target is Rho-associated protein kinase 2 (Rattus norvegicus, UniProt Q62868). The experiment in a line: Inhibition of ROCK2 in rat A7R5 cells assessed as MLC phosphorylation at T18/S19 by ELISA. It is filed as cell-based.
Data set [13] is described as follows: Stability of compound in human plasma assessed as half life at 1 uM by LC-MS/MS analysis. Type of data set: ADME, cell-free.
For data set [14], the target named is T2, Rho-associated protein kinase 2. The experiment in a line: Inhibition of human recombinant ROCK2 assessed as inhibition constant by microfluidic mobility shift method.
Data set [15] is filed under the species Mus musculus. The experiment in a line: Antidiabetic activity in oxygen induced retinopathy mouse model assessed as decrease in pathological neovascularization at 0.8 %, thrice daily for 6 days by microscopic analysis. Type of data set: functional. Further details: scale not given: the % may be the effect or the level left. The note with it: time 6 day.
For data set [16], the species on record is Mus musculus. The experiment in a line: Antidiabetic activity in oxygen induced retinopathy mouse model assessed as decrease in pathological neovascularization at 0.4 %, thrice daily for 6 days by microscopic analysis. It is filed as functional. On the set-up: scale not given: the % may be the effect or the level left. The note with it: time 6 day.
For data set [17], the species on record is Mus musculus. The experiment in a line: Antidiabetic activity in oxygen induced retinopathy mouse model assessed as decrease in fluorescein leakage at 0.8 %, thrice daily for 6 days by fluorescein angiography. It is filed as functional. On the set-up: scale not given: the % may be the effect or the level left. The note with it: time 6 day.
The target of data set [18] is T1, Rho-associated protein kinase 1. The experiment in a line: Inhibition of human ROCK1.
Data set [19] is described as follows: Half life of Wistar rat at 0.910 mg/kg, po and measured upto 7 hrs by HPLC/MS analysis. It is filed as ADME, organism-based. The conditions noted are these: in vivo, dose 0.91 mg/kg.
Data set [20] in a line: Oral bioavailability of Wistar rat at 0.910 mg/kg and measured upto 7 hrs by HPLC/MS analysis. It is filed as ADME, organism-based. The conditions noted are these: in vivo, dose 0.91 mg/kg.
The nature of data set [21]: Clearance of Wistar rat at 0.910 mg/kg, po and measured upto 7 hrs by HPLC/MS analysis. It is filed as ADME, organism-based. The conditions noted are these: in vivo, dose 0.91 mg/kg.
For data set [22], the target named is T2, Rho-associated protein kinase 2. The experiment in a line: Inhibition of ROCK2 (unknown origin) assessed as inhibition constant.
Data set [23] has as its target T1, Rho-associated protein kinase 1. The experiment in a line: Inhibition of ROCK1 (unknown origin) assessed as inhibition constant.
Data set [24] is described as follows: Inhibition of p70S6K (unknown origin). Further details: species or system Homo sapiens.
The target of data set [25] is RAC-alpha serine/threonine-protein kinase (Homo sapiens, UniProt P31749). The experiment in a line: Inhibition of AKT1 (unknown origin).
Data set [26] concerns the target Ribosomal protein S6 kinase alpha-1 (Homo sapiens, UniProt Q15418). The experiment in a line: Inhibition of RSK1 (unknown origin).
The target of data set [27] is RAC-beta serine/threonine-protein kinase (Homo sapiens, UniProt P31751). The experiment in a line: Inhibition of AKT2 (unknown origin).
Sequence of RAC-beta serine/threonine-protein kinase (P31751 whole entry): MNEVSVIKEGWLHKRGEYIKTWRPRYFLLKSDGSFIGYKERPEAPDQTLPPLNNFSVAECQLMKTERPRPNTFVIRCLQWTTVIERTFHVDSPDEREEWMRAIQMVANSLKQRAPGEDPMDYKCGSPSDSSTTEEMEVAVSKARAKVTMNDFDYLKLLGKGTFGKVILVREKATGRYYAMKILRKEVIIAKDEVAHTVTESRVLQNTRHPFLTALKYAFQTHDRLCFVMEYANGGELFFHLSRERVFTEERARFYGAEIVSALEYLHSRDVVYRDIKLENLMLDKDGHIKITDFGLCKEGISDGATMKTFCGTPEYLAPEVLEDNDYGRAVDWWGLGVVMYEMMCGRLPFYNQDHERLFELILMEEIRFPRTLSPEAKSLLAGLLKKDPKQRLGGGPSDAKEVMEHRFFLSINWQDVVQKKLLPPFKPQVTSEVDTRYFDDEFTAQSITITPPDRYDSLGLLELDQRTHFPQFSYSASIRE

T1 sequence (Q13464 whole entry, the tested form may be a part): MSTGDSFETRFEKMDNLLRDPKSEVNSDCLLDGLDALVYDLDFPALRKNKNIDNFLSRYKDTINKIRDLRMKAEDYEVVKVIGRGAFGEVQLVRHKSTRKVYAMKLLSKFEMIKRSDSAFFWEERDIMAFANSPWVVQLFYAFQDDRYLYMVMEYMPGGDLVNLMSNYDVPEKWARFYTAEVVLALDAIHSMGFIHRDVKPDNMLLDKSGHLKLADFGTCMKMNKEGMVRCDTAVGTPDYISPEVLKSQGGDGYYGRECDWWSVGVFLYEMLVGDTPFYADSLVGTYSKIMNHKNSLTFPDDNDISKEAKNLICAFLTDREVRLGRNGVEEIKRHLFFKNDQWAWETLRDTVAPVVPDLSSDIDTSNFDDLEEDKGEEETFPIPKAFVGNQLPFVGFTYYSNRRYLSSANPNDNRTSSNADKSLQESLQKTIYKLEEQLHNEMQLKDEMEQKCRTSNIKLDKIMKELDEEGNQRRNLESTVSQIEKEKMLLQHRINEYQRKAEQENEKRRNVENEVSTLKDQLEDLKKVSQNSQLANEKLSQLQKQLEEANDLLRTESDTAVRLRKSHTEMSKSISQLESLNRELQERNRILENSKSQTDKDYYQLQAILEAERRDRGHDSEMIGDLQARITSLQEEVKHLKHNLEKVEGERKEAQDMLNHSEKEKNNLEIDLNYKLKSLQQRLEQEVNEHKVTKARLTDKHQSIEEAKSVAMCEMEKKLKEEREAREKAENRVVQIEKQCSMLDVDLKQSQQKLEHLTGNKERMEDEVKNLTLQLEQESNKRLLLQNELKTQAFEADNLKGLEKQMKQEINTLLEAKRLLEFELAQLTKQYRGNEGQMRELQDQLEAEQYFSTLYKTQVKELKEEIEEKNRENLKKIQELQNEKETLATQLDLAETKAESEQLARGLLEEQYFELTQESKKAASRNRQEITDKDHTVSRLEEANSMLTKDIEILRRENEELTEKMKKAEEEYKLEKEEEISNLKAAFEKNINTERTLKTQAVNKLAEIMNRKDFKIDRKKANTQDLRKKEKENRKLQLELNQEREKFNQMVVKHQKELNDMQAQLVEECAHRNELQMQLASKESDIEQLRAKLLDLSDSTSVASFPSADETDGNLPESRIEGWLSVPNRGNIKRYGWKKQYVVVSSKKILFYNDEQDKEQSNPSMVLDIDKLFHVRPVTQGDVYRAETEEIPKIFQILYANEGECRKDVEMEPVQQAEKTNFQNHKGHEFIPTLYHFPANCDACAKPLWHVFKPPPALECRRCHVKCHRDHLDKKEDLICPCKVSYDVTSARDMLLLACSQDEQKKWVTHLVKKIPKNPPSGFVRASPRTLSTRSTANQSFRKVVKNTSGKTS
T2 sequence (O75116 whole entry, the tested form may be a part): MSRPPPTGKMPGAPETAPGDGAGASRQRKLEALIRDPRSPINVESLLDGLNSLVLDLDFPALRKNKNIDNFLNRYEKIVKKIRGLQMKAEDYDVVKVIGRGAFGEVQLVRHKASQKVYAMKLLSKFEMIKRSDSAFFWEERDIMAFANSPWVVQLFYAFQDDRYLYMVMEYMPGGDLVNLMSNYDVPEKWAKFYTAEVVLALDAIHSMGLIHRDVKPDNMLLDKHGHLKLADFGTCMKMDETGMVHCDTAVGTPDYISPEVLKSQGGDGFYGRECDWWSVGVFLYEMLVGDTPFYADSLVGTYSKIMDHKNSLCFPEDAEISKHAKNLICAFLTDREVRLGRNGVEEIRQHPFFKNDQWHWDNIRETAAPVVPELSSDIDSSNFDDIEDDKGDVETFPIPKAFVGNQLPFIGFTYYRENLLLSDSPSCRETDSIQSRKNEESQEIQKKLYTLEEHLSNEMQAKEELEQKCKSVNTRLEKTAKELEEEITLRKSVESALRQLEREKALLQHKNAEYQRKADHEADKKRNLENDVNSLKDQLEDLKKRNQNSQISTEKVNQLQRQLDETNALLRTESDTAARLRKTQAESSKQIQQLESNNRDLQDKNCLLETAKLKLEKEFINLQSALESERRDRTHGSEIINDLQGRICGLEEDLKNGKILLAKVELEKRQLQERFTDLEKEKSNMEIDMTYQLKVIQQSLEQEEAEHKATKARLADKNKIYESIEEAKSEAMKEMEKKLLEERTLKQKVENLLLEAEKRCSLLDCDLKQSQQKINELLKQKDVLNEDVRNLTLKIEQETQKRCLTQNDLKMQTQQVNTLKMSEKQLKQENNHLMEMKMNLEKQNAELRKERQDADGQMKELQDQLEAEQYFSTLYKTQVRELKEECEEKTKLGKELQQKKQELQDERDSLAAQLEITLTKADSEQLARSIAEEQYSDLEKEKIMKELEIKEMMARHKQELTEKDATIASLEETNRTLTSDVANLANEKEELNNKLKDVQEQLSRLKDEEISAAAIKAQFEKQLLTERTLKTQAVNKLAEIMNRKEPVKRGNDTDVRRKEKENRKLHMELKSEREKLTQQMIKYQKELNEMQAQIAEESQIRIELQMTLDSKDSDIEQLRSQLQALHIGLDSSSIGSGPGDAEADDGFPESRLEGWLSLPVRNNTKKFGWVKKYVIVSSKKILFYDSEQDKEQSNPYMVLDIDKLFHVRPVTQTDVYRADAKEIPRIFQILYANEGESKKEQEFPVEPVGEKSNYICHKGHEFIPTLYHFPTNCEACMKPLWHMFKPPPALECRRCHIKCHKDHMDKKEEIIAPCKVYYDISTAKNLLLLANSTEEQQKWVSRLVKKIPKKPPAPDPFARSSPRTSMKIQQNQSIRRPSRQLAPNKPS
Sequence of Nicotinamide phosphoribosyltransferase (P43490 whole entry): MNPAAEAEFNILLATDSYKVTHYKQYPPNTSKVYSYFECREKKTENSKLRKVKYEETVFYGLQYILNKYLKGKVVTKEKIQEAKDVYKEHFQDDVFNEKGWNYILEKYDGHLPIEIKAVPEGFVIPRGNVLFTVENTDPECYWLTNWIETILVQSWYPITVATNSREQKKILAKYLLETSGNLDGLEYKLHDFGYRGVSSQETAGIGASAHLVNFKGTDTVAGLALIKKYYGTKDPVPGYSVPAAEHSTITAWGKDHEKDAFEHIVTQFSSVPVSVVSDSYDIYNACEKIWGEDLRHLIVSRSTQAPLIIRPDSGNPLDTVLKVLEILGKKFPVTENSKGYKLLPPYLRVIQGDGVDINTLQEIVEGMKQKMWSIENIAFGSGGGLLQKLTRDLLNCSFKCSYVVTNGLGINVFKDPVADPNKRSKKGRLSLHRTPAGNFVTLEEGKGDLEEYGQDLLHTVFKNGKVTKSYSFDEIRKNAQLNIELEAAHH
Sequence of RAC-alpha serine/threonine-protein kinase (P31749 whole entry): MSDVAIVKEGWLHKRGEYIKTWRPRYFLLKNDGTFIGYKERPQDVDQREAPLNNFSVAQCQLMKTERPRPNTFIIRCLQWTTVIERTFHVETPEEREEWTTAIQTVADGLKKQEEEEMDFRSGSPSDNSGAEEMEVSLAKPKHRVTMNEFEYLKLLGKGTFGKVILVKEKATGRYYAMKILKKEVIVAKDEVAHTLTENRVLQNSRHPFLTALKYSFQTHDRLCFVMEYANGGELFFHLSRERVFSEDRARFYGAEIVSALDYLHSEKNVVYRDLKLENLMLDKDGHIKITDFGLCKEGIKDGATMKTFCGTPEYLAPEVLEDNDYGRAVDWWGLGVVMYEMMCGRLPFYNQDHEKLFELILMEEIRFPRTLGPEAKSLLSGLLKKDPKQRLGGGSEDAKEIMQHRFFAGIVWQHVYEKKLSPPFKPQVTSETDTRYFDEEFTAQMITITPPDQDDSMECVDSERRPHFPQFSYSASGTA
Sequence of Ribosomal protein S6 kinase alpha-1 (Q15418 whole entry): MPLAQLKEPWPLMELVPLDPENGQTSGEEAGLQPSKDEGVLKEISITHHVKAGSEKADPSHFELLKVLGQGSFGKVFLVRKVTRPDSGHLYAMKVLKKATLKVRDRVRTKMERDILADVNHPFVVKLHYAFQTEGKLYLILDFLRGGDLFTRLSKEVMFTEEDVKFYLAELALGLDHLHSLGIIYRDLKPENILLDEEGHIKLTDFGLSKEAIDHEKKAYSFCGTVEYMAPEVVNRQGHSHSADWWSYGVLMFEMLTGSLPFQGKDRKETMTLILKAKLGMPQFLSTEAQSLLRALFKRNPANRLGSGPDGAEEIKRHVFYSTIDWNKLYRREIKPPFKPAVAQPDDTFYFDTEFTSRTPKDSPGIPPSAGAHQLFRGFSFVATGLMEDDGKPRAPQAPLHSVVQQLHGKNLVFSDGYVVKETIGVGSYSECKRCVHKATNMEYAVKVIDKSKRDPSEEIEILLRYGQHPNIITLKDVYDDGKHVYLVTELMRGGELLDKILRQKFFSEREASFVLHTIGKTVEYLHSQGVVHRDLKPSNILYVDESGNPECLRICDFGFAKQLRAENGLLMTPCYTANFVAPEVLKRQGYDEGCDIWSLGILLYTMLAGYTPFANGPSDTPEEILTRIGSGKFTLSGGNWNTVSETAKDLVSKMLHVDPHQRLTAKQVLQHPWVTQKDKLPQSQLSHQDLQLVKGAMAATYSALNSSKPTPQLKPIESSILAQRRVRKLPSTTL

For `NCc1ccc(Oc2ccc3c(c2)B(O)OC3)c(Cl)c1`, the IC50 (commonly the point on the concentration scale where inhibition reaches its midpoint) is 730 nM in [1] and 340 nM in data set [2].

`NCc1ccc(Oc2ccc3c(c2)B(O)OC3)c(F)c1`: the IC50 turned out to be 810 nM in [1] and 540 nM in [2]. Turning to `COc1cccc(CNC(=O)c2cc3cc(-c4cn[nH]c4)ccc3[nH]2)c1`, the half-maximal inhibitory concentration (IC50) in data set [3] was 17 nM; in data set [4], above 20000 nM. Take `COc1nc(Nc2ccc3[nH]ncc3c2)nc(N2CCNCC2)n1`: the IC50 in data set [5] is 20 nM. Turning to `COc1cccc(CNC(=O)c2n[nH]c3cc(-c4cn[nH]c4)ccc23)c1`, the values for the IC50 in data set [3] and in data set [4] were below 1 nM and 3340 nM, respectively. `C[C@@H](N)c1ccc(C(=O)Nc2ccncc2)cc1`: the IC50 in data set [6] was found to be 200 nM. As to `Nc1nc(Nc2ccc(Oc3ccc4[nH]ncc4c3)c(F)c2)cc(-c2ccncc2)n1`, in data set [7], the half-inhibitory concentration (IC50) came to 20 nM. For `COc1cccc(CN(CCN(C)C)C(=O)c2n[nH]c3cc(-c4cn[nH]c4)ccc23)c1`, the half-maximal inhibitory concentration (IC50) is below 1 nM in data set [3] and 184 nM in data set [4]. In the case of `COc1cc(-c2cn[nH]c2)ccc1NC(=O)CCc1ccccc1`, in [8], the 50% inhibitory concentration (IC50) was 84 nM. For `COc1cccc(CNC(=O)c2c[nH]c3ccc(-c4cn[nH]c4)cc23)c1`, in data set [3], the 50% inhibitory concentration (IC50) was determined as 67 nM. In the case of `O=C(NCc1cccc(O)c1)Nc1nc(-c2ccncc2)cs1`, the IC50 in data set [9] was found to be 14.5 nM. For `COc1cccc(CNC(=O)c2nn(C)c3cc(-c4cn[nH]c4)ccc23)c1`, the 50% inhibitory concentration (IC50) in data set [3] is below 1 nM; in [4] it was 1520 nM.

Turning to `O=C(Nc1ccc(-c2n[nH]c(=O)c3c2CCCC3)cc1)N1Cc2ccc(F)cc2C1`, the IC50 in [10] came to 45 nM. Regarding `COc1cccc(CN(C(=O)c2n[nH]c3cc(-c4cn[nH]c4)ccc23)C2CC2)c1`, the IC50 is 6 nM in data set [3] and above 20000 nM in [4].

In the case of `O=C(OCC1CCCO1)c1cccc(CN2CCCC(Nc3ccc4[nH]ncc4c3)C2)c1` (stereo unspecified), the IC50 in [11] came to 3 nM; in data set [12] it was 240 nM. In addition, the half-life (as a rule, how long it takes for the measured level to halve) at 1 µM in data set [13] is below 5 min.

Regarding `COc1cccc(CNC(=O)c2n[nH]c3ccc(-c4cn[nH]c4)cc23)c1`, in data set [3], the half-maximal inhibitory concentration (IC50) came out at 67 nM. Consider `COc1cccc(CNC(=O)c2c[nH]c3cc(-c4cn[nH]c4)ccc23)c1`, for which the half-inhibitory concentration (IC50) in data set [3] was below 1 nM; in data set [4] it was 3340 nM. `COc1cccc(CNC(=O)c2nc3ccc(-c4cn[nH]c4)cc3[nH]2)c1`: the IC50 worked out at 4 nM in data set [3] and 1530 nM in data set [4]. In data set [6], `N#Cc1c[nH]c2nccc(Oc3c(F)cc(Nc4ccnc(N)n4)cc3F)c12` returned an IC50 of 1 nM. For the compound `COc1cccc(CNC(=O)c2[nH]c3cc(-c4cn[nH]c4)ccc3c2CN(C)C)c1`, the concentration for half-maximal inhibition (IC50) in [4] came to 1510 nM.

`O=C(NCc1c(Cl)cccc1Cl)Nc1ccc2[nH]ncc2c1`: the half-inhibitory concentration (IC50) in [6] came out at 20 nM. The compound `Cc1nnnn1-c1ccc(C(=O)NCc2cccc(C(=O)NC3=NC4CCN(C)CC4S3)c2)cc1` (stereo unspecified) gave a half-maximal inhibitory concentration (IC50) in [6] of 6 nM. Regarding `O=c1[nH]ccc2cc(OC3CCNCC3)ccc12` [SAR-407899 FREE BASE], the Ki (commonly a measure of affinity in units of concentration, obtained from inhibition or displacement) in data set [14] is 36 nM. In the case of `C[C@H]1CNCCCN1S(=O)(=O)c1cccc2cncc(F)c12`, the Activity in the data set listed under Mus musculus [15] is on record as 41.9%; in the data set listed under Mus musculus [16], 23%; in the data set filed under Mus musculus [17], 58.4%.

With `Cc1c(Oc2ccc(CN)cc2F)ccc2c1B(O)OC2`, the figures for the IC50 in data set [1] and in data set [2] were 250 nM and 220 nM, respectively. With `O=C(Nc1ccc(-c2n[nH]c(=O)c3c2CCCC3)cc1)N1Cc2ccc(Cl)cc2C1`, the IC50 in data set [10] amounted to 44 nM.

Turning to `Nc1nc(Nc2ccc(Oc3ccc4[nH]ncc4c3)c(F)c2)cc(N2C[C@@H]3CCCN[C@@H]3C2)n1`, in data set [7], the IC50 worked out at 6 nM. `O=C(Nc1ccc(-c2cn[nH]c2)cc1)OCc1ccccc1` registered an IC50 in data set [4] above 20000 nM. On to `O=C(Cc1ccccc1Cl)Nc1ccc(-c2cn[nH]c2)cc1OCCN1CCCC1`, for which it took 9 nM to reach half-maximal inhibition in data set [6] (IC50). Consider `COc1cccc(CNC(=O)c2cc3ccc(-c4cn[nH]c4)cc3[nH]2)c1`, for which the values for the IC50 in data set [3] and in data set [4] were 1.6 nM and 6740 nM, respectively. In data set [18], `O=C(Nc1ccc(-c2ccncc2)cc1)N[C@@H](CO)c1ccccc1` displayed a 50% inhibitory concentration (IC50) of 85 nM. `Cc1c[nH]c2nccc(Oc3c(F)cc(Nc4cc(Cl)nc(N)n4)cc3F)c12` [BAY-549]: in data set [19], the half-life was 1.2 h. Also, the bioavailability (commonly dose-corrected exposure relative to a reference, in per cent) in data set [20] was 48%. Besides, in data set [21], the CL/F (usually clearance divided by bioavailability, as obtained after extravascular dosing) is 28.3 mL/min/kg. On to `OCCOc1cccc(CN2CC[C@@H](Nc3cccc4cnccc34)C2)c1`, for which the Ki in data set [22] is 14 nM; in data set [23], 5 nM. On to `NC[C@@](O)(c1ccc(Cl)cc1)c1ccc(-c2cn[nH]c2)cc1` [AT-13148], for which the concentration for half-maximal inhibition (IC50) in data set [24] is below 10 nM; in data set [9], below 10 nM; in data set [6], below 10 nM; in data set [4], below 10 nM; in [25], 38 nM; in data set [26], 85 nM. This compound also had an IC50 in data set [27] of 402 nM. In the case of `C[C@@H](N)[C@H]1CC[C@H](C(=O)Nc2ccnc3[nH]ccc23)CC1`, the Ki in data set [22] came to 10 nM. `O=C(Nc1ccc(-c2cn[nH]c2)cc1)[C@@H]1CNC[C@H]1c1ccccc1`: in data set [6], the 50% inhibitory concentration (IC50) came out at 33 nM.

Compound `NC(=O)c1cc(F)c(N[C@H]2CC[C@H](N)CC2)cc1F` showed an IC50 in data set [6] of 26 nM.
